According to patent publication US20230263742A1, “A LIPID” (Stemirna Therapeutics Co., Ltd., priority 2021, published 2023):

Experiments:
[1] = Particle size, PDI and zeta potential by dynamic light scattering; type: physicochemical; settings: for PDI / Zeta potential: Luc mRNA-LNP 50:10:38.5:1.5; for Size: Luc mRNA-LNP, lipid:phospholipid:cholesterol:PEG-DMG 50:10:38.5:1.5
Procedure: A Zetasizer Nano ZS (Malvern Instruments Ltd, Malvern, Worcestershire, UK) can be used to determine the particle size, the polydispersity index (PDI) and the zeta (ζ) potential of the nanoparticle compositions in 1×PBS in determining particle size and 15 mM PBS in determining zeta (ζ) potential.
The evaluation method of particle size and zeta potential: 50 μL LNP sample was diluted with 950 μL purified water to obtain the diluted LNP sample. The sample was placed in a dynamic light scattering laser particle size analyzer (Malvern, ZS-90) for testing.

HepG2 cells = assay: In vitro cell Luc expression, HepG2; type: cell-based; settings: 100 ng Luc mRNA-LNP, 24 h
Procedure: In vitro cell expression evaluation method: C2C12 cells, HepG2 cells, A20 cells were cultured, and 100,000 cells per well were plated on a 96-well plate. 100 ng of LNP samples were mixed with the cells and incubated for 24 hours (n=3), and then the expression was detected using luciferase quantitative kit 24 h after administration.

Balb/C mice = assay: In vivo Luc expression after tail vein injection of Luc mRNA-LNP; settings: 5 μg Luc mRNA-LNP tail vein, 6 hours
Procedure: In vivo expression evaluation method: 5 μg Luc (luciferase) mRNA-LNP solution of SW-II-118, SW-120, or SW-121 were injected into the tail vein of Balb/C mice. 6 hours after the administration, the mice are injected 0.15 mg/kg of […] substrate intraperitoneally. Within 15 minutes after the injection of the substrate, the fluorescence signal intensity was tested under a small animal in vivo imaging instrument.

CCCCCCCCC(CCCCCCCC)OC(=O)CCCCCCCN(CCO)CCCCCCCC(=O)OCCc1ccc(CCCC)cc1 [SW-II-118]
PDI ([1]; phospholipid DAPC): 0.28 ± 0.03 | Zeta potential ([1]; phospholipid DAPC): −7.18 ± 0.42 mV | Size ([1]; phospholipid DAPC): 93.8 ± 1.6 nm | PDI ([1]; phospholipid DMPE): 0.29 ± 0.01 | Zeta potential ([1]; phospholipid DMPE): −1.59 ± 0.19 mV | Size ([1]; phospholipid DMPE): 102.8 ± 2.3 nm | PDI ([1]; phospholipid DOPE): 0.10 ± 0.04 | Zeta potential ([1]; phospholipid DOPE): −4.31 ± 1.36 mV | Size ([1]; phospholipid DOPE): 111.3 ± 2.0 nm | PDI ([1]; phospholipid DPPC): 0.26 ± 0.06 | Zeta potential ([1]; phospholipid DPPC): −2.32 ± 0.32 mV | Size ([1]; phospholipid DPPC): 97.3 ± 2.6 nm | PDI ([1]; phospholipid DPPE): 0.54 ± 0.41 | Zeta potential ([1]; phospholipid DPPE): −0.80 ± 0.58 mV | Size ([1]; phospholipid DPPE): 265.7 ± 306.1 nm | PDI ([1]; phospholipid DSPC): 0.37 ± 0.02 | Zeta potential ([1]; phospholipid DSPC): −1.65 ± 0.58 mV | Size ([1]; phospholipid DSPC): 108.7 ± 2.5 nm | PDI ([1]; phospholipid DSPE): 0.21 ± 0.01 | Zeta potential ([1]; phospholipid DSPE): −11.97 ± 1.19 mV | Size ([1]; phospholipid DSPE): 103.4 ± 2.0 nm | HepG2 cell, in vitro expression (HepG2 cells; phospholipid DAPC): 6674 | HepG2 cell, in vitro expression (HepG2 cells; phospholipid DMPE): 17608.5 | HepG2 cell, in vitro expression (HepG2 cells; phospholipid DOPE): 17838.5 | HepG2 cell, in vitro expression (HepG2 cells; phospholipid DPPC): 31083 | HepG2 cell, in vitro expression (HepG2 cells; phospholipid DPPE): 86 | HepG2 cell, in vitro expression (HepG2 cells; phospholipid DSPC): 11247.5 | HepG2 cell, in vitro expression (HepG2 cells; phospholipid DSPE): 3053 | In vivo expression (Balb/C mice; phospholipid DAPC): 8658333.3 p/sec/cm^2/sr | In vivo expression (Balb/C mice; phospholipid DMPE): 23780.0 p/sec/cm^2/sr | In vivo expression (Balb/C mice; phospholipid DOPE): 38066666.7 p/sec/cm^2/sr | In vivo expression (Balb/C mice; phospholipid DPPC): 34323333.3 p/sec/cm^2/sr | In vivo expression (Balb/C mice; phospholipid DPPE): 25176.7 p/sec/cm^2/sr | In vivo expression (Balb/C mice; phospholipid DSPC): 40156666.7 p/sec/cm^2/sr | In vivo expression (Balb/C mice; phospholipid DSPE): 25383333.3 p/sec/cm^2/sr

CCCCCCCCC(CCCCCCCC)OC(=O)CCCCCCCN(CCO)CCCCCCCC(=O)OCCc1ccc(CCCCCC)cc1 [SW-II-120]
PDI ([1]; phospholipid DAPC): 0.28 ± 0.02 | Zeta potential ([1]; phospholipid DAPC): −4.82 ± 0.28 mV | Size ([1]; phospholipid DAPC): 97.1 ± 1.6 nm | PDI ([1]; phospholipid DMPE): 0.20 ± 0.02 | Zeta potential ([1]; phospholipid DMPE): −6.08 ± 0.43 mV | Size ([1]; phospholipid DMPE): 92.7 ± 1.1 nm | PDI ([1]; phospholipid DOPE): 0.13 ± 0.02 | Zeta potential ([1]; phospholipid DOPE): 2.09 ± 0.28 mV | Size ([1]; phospholipid DOPE): 142.9 ± 1.9 nm | PDI ([1]; phospholipid DPPC): 0.22 ± 0.01 | Zeta potential ([1]; phospholipid DPPC): −3.23 ± 2.95 mV | Size ([1]; phospholipid DPPC): 92.97 ± 0.7 nm | PDI ([1]; phospholipid DPPE): 0.15 ± 0.04 | Zeta potential ([1]; phospholipid DPPE): −5.04 ± 1.16 mV | Size ([1]; phospholipid DPPE): 115.3 ± 3.7 nm | PDI ([1]; phospholipid DSPC): 0.20 ± 0.01 | Zeta potential ([1]; phospholipid DSPC): 0.61 ± 0.55 mV | Size ([1]; phospholipid DSPC): 88.7 ± 1.1 nm | PDI ([1]; phospholipid DSPE): 0.22 ± 0.02 | Zeta potential ([1]; phospholipid DSPE): −5.15 ± 2.37 mV | Size ([1]; phospholipid DSPE): 106.5 ± 5.5 nm | HepG2 cell, in vitro expression (HepG2 cells; phospholipid DAPC): 4555.5 | HepG2 cell, in vitro expression (HepG2 cells; phospholipid DMPE): 31448.5 | HepG2 cell, in vitro expression (HepG2 cells; phospholipid DOPE): 83649.5 | HepG2 cell, in vitro expression (HepG2 cells; phospholipid DPPC): 24199.5 | HepG2 cell, in vitro expression (HepG2 cells; phospholipid DPPE): 57343 | HepG2 cell, in vitro expression (HepG2 cells; phospholipid DSPC): 13068 | HepG2 cell, in vitro expression (HepG2 cells; phospholipid DSPE): 2482 | In vivo expression (Balb/C mice; phospholipid DAPC): 39073333.3 p/sec/cm^2/sr | In vivo expression (Balb/C mice; phospholipid DMPE): 49736666.7 p/sec/cm^2/sr | In vivo expression (Balb/C mice; phospholipid DOPE): 5083666.7 p/sec/cm^2/sr | In vivo expression (Balb/C mice; phospholipid DPPC): 21307300.0 p/sec/cm^2/sr | In vivo expression (Balb/C mice; phospholipid DPPE): 7056000.0 p/sec/cm^2/sr | In vivo expression (Balb/C mice; phospholipid DSPC): 58040000.0 p/sec/cm^2/sr | In vivo expression (Balb/C mice; phospholipid DSPE): 128056666.7 p/sec/cm^2/sr

CCCCCCCCC(CCCCCCCC)OC(=O)CCCCCCCN(CCO)CCCCCCCC(=O)OCCc1ccc(CCCCCCC)cc1 [SW-II-121]
PDI ([1]; phospholipid DAPC): 0.27 ± 0.01 | Zeta potential ([1]; phospholipid DAPC): −2.21 ± 0.53 mV | Size ([1]; phospholipid DAPC): 96.3 ± 2.2 nm | PDI ([1]; phospholipid DMPE): 0.20 ± 0.03 | Zeta potential ([1]; phospholipid DMPE): 0.01 ± 0.35 mV | Size ([1]; phospholipid DMPE): 139.8 ± 1.1 nm | PDI ([1]; phospholipid DOPE): 0.17 ± 0.03 | Zeta potential ([1]; phospholipid DOPE): 5.06 ± 0.15 mV | Size ([1]; phospholipid DOPE): 159.87 ± 3.7 nm | PDI ([1]; phospholipid DPPC): 0.22 ± 0.02 | Zeta potential ([1]; phospholipid DPPC): −1.23 ± 1.43 mV | Size ([1]; phospholipid DPPC): 98.7 ± 1.7 nm | PDI ([1]; phospholipid DPPE): 0.17 ± 0.03 | Zeta potential ([1]; phospholipid DPPE): −0.29 ± 0.31 mV | Size ([1]; phospholipid DPPE): 98.4 ± 2.7 nm | PDI ([1]; phospholipid DSPC): 0.22 ± 0.03 | Zeta potential ([1]; phospholipid DSPC): −1.18 ± 1.18 mV | Size ([1]; phospholipid DSPC): 98.5 ± 1.5 nm | PDI ([1]; phospholipid DSPE): 0.17 ± 0.03 | Zeta potential ([1]; phospholipid DSPE): −9.60 ± 2.10 mV | Size ([1]; phospholipid DSPE): 116.3 ± 0.2 nm | HepG2 cell, in vitro expression (HepG2 cells; phospholipid DAPC): 3110 | HepG2 cell, in vitro expression (HepG2 cells; phospholipid DMPE): 16466 | HepG2 cell, in vitro expression (HepG2 cells; phospholipid DOPE): 42994.5 | HepG2 cell, in vitro expression (HepG2 cells; phospholipid DPPC): 16064 | HepG2 cell, in vitro expression (HepG2 cells; phospholipid DPPE): 25349.5 | HepG2 cell, in vitro expression (HepG2 cells; phospholipid DSPC): 7932 | HepG2 cell, in vitro expression (HepG2 cells; phospholipid DSPE): 1211.5 | In vivo expression (Balb/C mice; phospholipid DAPC): 156336666.7 p/sec/cm^2/sr | In vivo expression (Balb/C mice; phospholipid DMPE): 78216666.7 p/sec/cm^2/sr | In vivo expression (Balb/C mice; phospholipid DOPE): 47516666.7 p/sec/cm^2/sr | In vivo expression (Balb/C mice; phospholipid DPPC): 36323333.3 p/sec/cm^2/sr | In vivo expression (Balb/C mice; phospholipid DPPE): 46183333.3 p/sec/cm^2/sr | In vivo expression (Balb/C mice; phospholipid DSPC): 12494333.3 p/sec/cm^2/sr | In vivo expression (Balb/C mice; phospholipid DSPE): 19344666.7 p/sec/cm^2/sr
